# Measured values as given in ChEMBL document CHEMBL1141806, “Gloeolactone, a New Epoxy Lactone from a Blue-Green Alga” (J Nat Prod, 1998).
# The source made the active and inactive calls. The rule behind the calls is not given here.
# Assays:
# [1] = Toxicity against brine shrimp at 125 ug/mL; type: organism-based; conditions: artemia, in vivo; read-out: Activity
# Vibrio harveyi = assay: Antimicrobial activity against Vibrio harveyi; type: functional, organism-based
smiles,measurement,setting,value
CC/C=C\C[C@H]1O[C@@H]1/C=C/C1CCCCCCCC(=O)O1 (some centres not stated) [GLOEOLACTONE],mortality at 125 ug/mL,[1],100%
same,Activity,Vibrio harveyi,inactive
